Experimental data: patent publication US9345742B2, “Aminostatin derivatives for the treatment of arthrosis” (MERCK PATENT GMBH, priority 2011, dated 2016)
Numbered stars: 1 amine (or outer) side, 2 acyl side, 3 side chain; on linkers, the order of the positions; unused ones are H or OH. Square brackets hold non-standard residues; d marks the D form. Peptide text beside a SMILES is read from it. * marks the point of attachment. X1 = N[C@@H](CC(=O)[*:2])[C@H](Cc1ccccc1)N[*:1]; Abu = CC[C@H](N)C(=O)O; Boc = CC(C)(C)OC(=O)*

How the values were obtained:
bovine explants = assay: Cartilage explant assay (pH-induced cartilage degradation, GAG liberation); format: cell-based; conditions: Bos taurus, 72 h, pH 5.5, 3 days
Excerpt: In order to investigate the effect of potential cathepsin D inhibitors on cartilage degradation, a pH-induced model based on bovine explants is used. The pH of the medium in which the explants are cultivated is matched here to the pathophysiological pH of an arthrotic knee. This pH is pH 5.5. In this ex vivo model, potential cathepsin D inhibitors are subsequently investigated for their action with respect to stopping of the cartilage degradation process. If the cartilage is destroyed, glycosaminoglycans (GAGs) are released into the cell culture supernatant. The amount of GAGs liberated can be determined quantitatively with the aid of DMMB (dimethylmethylene blue hydrochloride). If sulfated GAGs are detected using dimethylmethylene blue hydrochloride, the decrease in the absorption at 633 nm is utilised. […] In order to determine the concentration, a calibration line is also recorded using chondroitin sulfate.
The bovine explants are firstly prepared. The induction of the cartilage degradation is carried out in 96-multiwell plates. One explant is cultivated per well. In each case, 200 μl of DMEM (incubation medium pH 5.5) without FBS+30 μg/ml of ascorbic acid are added. Thus negative control, explants (n=4) are incubated at pH 7.4 (without FBS). This control is not included in the calculation of the data, but instead ensures that the pH change has the desired effect on the liberation of GAG. At this point, the substances to be tested are added. No preincubation of the explants is carried out. The explants are cultivated with the corresponding substances for 3 days in the incubator at 37° C. and 7.5% CO2.
In order to investigate the effect of cathepsin D inhibitors on the liberation of GAG (glycosaminoglycan), the substances are employed in the desired concentration and cultivated for 3 days. The compounds to be tested are tested in a first experiment in a concentration of 1 μM and 1% of DMSO. Substances which have an effect of >50% on the liberation of GAG (this corresponds to <50% of the control in the Assay Explorer) are tested in the next experiment at 100 nM and 1% of DMSO. Substances which have an effect of >50% on the liberation of GAG under these conditions (this corresponds to <50% of the control in the Assay Explorer) are tested in a concentration/effect relationship. The compounds here are investigated in the following concentrations: 30 μM, 10 μM, 3 μM, 1 μM, […], 0.1 μM, 0.03 μM, 0.01 μM.
The positive control used is pepstatin A with a concentration of 0.01 μM. The assay window is defined by the control (pH 5.5), defined as 0% effect, and the control pH 5.5+0.01 μM pepstatin A, defined as 100% effect. After incubation for 3 days, the cell culture supernatants are collected and stored at −20° C. or measured directly. The amount of liberated GAG is measured photometrically.
The effect (1 value) of the respective substance in % based on the positive control (pH 5.5+0.01 μM pepstatin A) and the negative control (pH 5.5) is reported for concentrations of 1 μM and 100 nM. The value represents the average of 4 replicants. In the determination of a concentration/effect relationship, an IC50 value is reported to the database (Assay Explorer).
The cell culture supernatants (200 μl) are either measured directly or stored at −20° C. In order to ensure an accurate determination of the concentration (μg/ml of GAG in the supernatant) of GAG, the measurement values must be located in the linear region of the standard curve. In order to ensure this, various dilutions are routinely introduced (1/5, 1/10, 1/20, 1/40). The dilutions are prepared with medium and introduced automatically (Hamilton) into a 384-well plate (15 μl). 60 μl of DMMB solution are likewise added automatically (or using a multichannel pipette). A rapid colour reaction occurs, which is subsequently measured at 633 nm using a plate reader (for example Envision).

recombinant human renin = recombinant human renin (Homo sapiens (Human), UniProt P00797); assay: In-vitro fluorescence assay for identification of renin-inhibitory activity; format: biochemical; conditions: recombinant human renin 10 nM, pH 7.2; read-out: Renin selectivity IC50
Chain of recombinant human renin (P00797 67-406): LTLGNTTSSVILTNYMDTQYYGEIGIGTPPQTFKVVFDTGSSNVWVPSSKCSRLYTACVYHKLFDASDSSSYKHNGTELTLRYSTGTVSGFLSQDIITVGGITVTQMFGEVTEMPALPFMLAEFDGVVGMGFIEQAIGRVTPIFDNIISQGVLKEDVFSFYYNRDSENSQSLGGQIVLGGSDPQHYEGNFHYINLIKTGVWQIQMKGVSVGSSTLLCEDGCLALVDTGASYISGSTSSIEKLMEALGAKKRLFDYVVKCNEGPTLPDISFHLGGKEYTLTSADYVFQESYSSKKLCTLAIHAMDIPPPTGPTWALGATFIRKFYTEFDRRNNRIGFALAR
Experimental: In order to identify modulators of renin activity, a continuous enzymatic test was carried out with a synthetic peptide which carries a fluorescent group Edans (=(5-(aminoethyl)aminonaphthalenesulfonate) which is quenched by energy transfer from a Dabcyl (4′-dimethylaminoazobenzene-4-carboxylate) group on the same molecule, in Greiner 384-well microtitre plates. Cleavage of the peptidic substrate by renin causes an increase in the fluorescence intensity. In order to determine the efficacy of substances, the time-dependent increase in the fluorescence intensity in the presence of the substance was compared with the time-dependent increase in fluorescence in the absence of substances. The reference substance used was renin inhibitor 2 (Z-Arg-Arg-Pro-Phe-His-Sta-Ile-His N-Boc-Lys methyl ester Z) (Sigma-Aldrich). The substrate used was renin FRET substrate I (DABCYL-g-Abu-[…]EDANS) (Anaspec, Fremont Calif.). The enzyme employed was recombinant human renin (Proteos, Kalamazoo, Mich.) in a final concentration of 10 nM. The test was carried out in 50 mM Mops buffer, 1.5% (v/v) of DMSO, 0.1% (w/v) of Igepal®, pH 7.2, 0.5% (w/v) of BSA. 2 μl of each substance solution with serially diluted substance concentration were added to in each case 4 μl of renin solution and incubated at room temperature for 15 min. The reaction was started by addition of 4 μl of substrate solution (final concentration 5 μM). After carrying out a starting-point fluorescence measurement (excitation wavelength 340 nm/emission wavelength 495 nm) using an Envision multilabel reader (Perkin Elmer), the reaction was incubated at 37° C. for 60 min. The amount of peptide fragment cleaved off during the reaction time was subsequently measured by determination of the increase in the fluorescence intensity at 495 nm (excitation wavelength 340 nm).

[1] = biological target: cathepsin D isolated from the human liver (Homo sapiens (Human), UniProt P07339); assay: In-vitro fluorescence assay for identification of cathepsin D inhibitors; format: biochemical; conditions: cathepsin D 1.4 nM, pH 5.5; read-out: CatD assay IC50-
Chain of cathepsin D isolated from the human liver (P07339 65-161): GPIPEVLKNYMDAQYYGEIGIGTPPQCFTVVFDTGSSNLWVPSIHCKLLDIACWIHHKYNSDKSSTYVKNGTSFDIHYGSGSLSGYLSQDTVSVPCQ
Chain of cathepsin D isolated from the human liver (P07339 169-412): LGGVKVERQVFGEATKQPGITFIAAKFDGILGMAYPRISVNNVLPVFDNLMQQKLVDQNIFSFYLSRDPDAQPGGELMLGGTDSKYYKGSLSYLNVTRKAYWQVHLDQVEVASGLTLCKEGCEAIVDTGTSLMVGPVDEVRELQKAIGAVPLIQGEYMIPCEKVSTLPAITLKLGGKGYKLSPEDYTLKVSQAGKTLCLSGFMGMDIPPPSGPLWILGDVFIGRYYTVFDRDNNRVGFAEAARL
Experimental: In order to identify modulators of cathepsin D activity, a continuous enzymatic test was carried out with a synthetic peptide which carries a fluorescent group (MCA=(7-methoxycoumarin-4-yl)acetyl) which is quenched by energy transfer from a Dpn (2,4 dinitrophenyl) group on the same molecule, in Greiner 384-well nb microtitre plates. Cleavage of the peptidic substrate by cathepsin D causes an increase in the fluorescence intensity. In order to determine the efficacy of substances, the time-dependent increase in the fluorescence intensity in the presence of the substance was compared with the time-dependent increase in fluorescence in the absence of substances. The reference substance used was pepstatin A (Sigma-Aldrich). The substrate used was […](Dnp)d-R—NH2 (Enzo Life Sciences, Lörrach). The enzyme employed was cathepsin D isolated from the human liver (Sigma-Aldrich) in a final concentration of 1.4 nM. The test was carried out in 100 mM sodium acetate buffer, 1.25% (v/v) of DMSO, 0.25% (w/v) of Chaps, pH 5.5. 2 μl of each substance solution with serially diluted substance concentration were added to in each case 4 μl of cathepsin D solution and incubated at room temperature for 10 min. The reaction was started by addition of 2 μl of substrate solution (final concentration 5 μM). After carrying out a starting-point fluorescence measurement (excitation wavelength 340 nm/emission wavelength 450 nm) using an Envision multilabel reader (Perkin Elmer), the reaction was incubated at room temperature for 60 min. The amount of peptide fragment cleaved off during the reaction time was subsequently measured by determination of the increase in the fluorescence intensity at 450 nm (excitation wavelength 340 nm).

Row | IC50 (recombinant human renin) [nM] | IC50 [1] [nM] | SMILES | IC50 (bovine explants) [nM]
1 | – | – | CC[C@H](C)[C@H](NC(=O)C[C@H](N)[C@H](Cc1ccccc1)NC(=O)[C@@H](NC(=O)CCc1ccccc1)C(C)C)C(=O)N[C@H](C(=O)OC)C(C)C [Compound 17, Methyl (S)-2-((2S,3S)-2-{(3S,4S)-3-amino-4-[(S)-3-methyl-2-(3-phenylpropionylamino)butyrylamino]-5-phenylpentanoylamino}-3-methylpentanoylamino)-3-methyl-butyrate] | 55.2
2 | > 30000 | 3.2 | CC[C@H](C)[C@H](NC(=O)C[C@H](N)[C@H](Cc1ccccc1)NC(=O)[C@@H](NC(=O)Cc1cccc(OC(F)(F)F)c1)[C@@H](C)CC)C(=O)N[C@H](C(=O)O)C(C)C [Compound 37, (S)-2-[(2S,3S)-2-((3S,4S)-3-Amino-4-{(1S,4S)-3-methyl-2-[2-(3-trifluoromethoxy-phenyl)acetylamino]pentanoylamino}-5-phenylpentanoylamino)-3-methylpentanoylamino]-3-methylbutyric acid] | 8.2
3 | > 30000 | 28 | CC[C@H](C)[C@H](NC(=O)C[C@H](N)[C@H](Cc1ccccc1)NC(=O)[C@@H](NC(=O)Cc1cccc(OC(F)(F)F)c1)C(C)C)C(=O)NCCC(C)C [Compound 36, N-[(1S,2S)-2-Methyl-1-(3-methylbutyl-carbamoyl)butyl]-(S)-3-(S)-amino-4-{(S)-3-methyl-2-[2-(3-trifluoromethoxyphenyl)-acetylamino]butyrylamino}-5-phenyl-penlanamide] | 13.8
4 | > 30000 | 1800 | CC[C@H](NC(=O)[C@H](CC(C)C)NC(=O)CC(C)C)C(=O)N[C@@H](Cc1ccccc1)[C@@H](N)CC(=O)NCCc1ccc2c(c1)OCO2 [Compound 5, N-(2-Benzo-1,3-dioxol-5-ylethyl)-(3S,4S)-3-amino-4-{(S)-2-[(S)-4-methyl-2-(3-methyl-butyrylamino)pentanoylamino]butyryl-amino}-5-phenylpentanamide] | 7.73
5 | > 30000 | 81 | CC[C@H](C)[C@H](NC(=O)C[C@H](N)[C@H](Cc1ccccc1)NC(=O)[C@@H](NC(=O)Cc1cccc(NS(C)(=O)=O)c1)C(C)C)C(=O)N[C@H](C(=O)OC)C(C)C [Compound 9, Methyl (S)-2-[(2S,3S)-2-((3S,4S)-3-amino-4-{(S)-2-[2-(3-methanesulfonylamino-phenyl)-acetylamino]-3-methylbutyrylamino}-5-phenylpentanoylamino)-3-methyl-pentanoylamino]-3-methylbutyrate] | –

Row | SMILES | IC50 (recombinant human renin) [nM] | IC50 [1] [nM] | IC50 (bovine explants) [nM]
6 | CC[C@H](C)[C@H](NC(=O)C[C@H](N)[C@H](Cc1ccccc1)NC(=O)[C@@H](NC(=O)[C@H](CC(C)C)NC(=O)CC(C)C)C(C)C)C(=O)Nc1cccnc1 [Compound 25, N-[(1S,2S)-2-Methyl-1-(pyridin-3-yl-carbamoyl)butyl]-(S)-3-amino-4-{(S)-(S)-3-methyl-2-[(S)-4-methyl-2-(3-methylbutyryl-amino)pentanoylamino]butyrylamino}-5-phenylpentanamide] | > 30000 | 520 | 27.5
7 | CC[C@H](NC(=O)[C@H](CC(C)C)NC(=O)OC(C)(C)C)C(=O)N[C@@H](Cc1ccccc1)[C@@H](N)CC(=O)N[C@H](C(=O)N[C@H](C(=O)OC)C(C)C)[C@@H](C)CC [Compound 1, Methyl (S)-2-((2S,3S)-2-{(3S,4S)-3-amino-4-[(S)-2-((S)-2-tert-butoxycarbonylamino-4-methylpentanoylamino)butyrylamino]-5-phenylpentanoylamino}-3-methylpentanoylamino)-3-methylbutyrate] (Boc-L[Abu][X1]IV-OMe) | – | 40 | 3.13
